According to PubChem BioAssay (NCI):
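Here, GI50 denotes the concentration required for 50% inhibition of growth. At the TGI there is no net growth.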

Columns and labels:
Assay in all cases: NCI anticancer screen, dose series, 384-well format
HCT-15 colon = tested on: HCT-15 colon
SN12C renal = tested on: SN12C renal
SF-539 CNS = tested on: SF-539 CNS
CAKI-1 renal = tested on: CAKI-1 renal
NCI-H460 NSCLC = tested on: NCI-H460 NSCLC
HCC-2998 colon = tested on: HCC-2998 colon
NCI-H322M lung = tested on: NCI-H322M lung
KM12 colon = tested on: KM12 colon
CCRF-CEM leukemia = tested on: CCRF-CEM leukemia
BT-549 breast = tested on: BT-549 breast
MDA-MB-435 melanoma = tested on: MDA-MB-435 melanoma
SR leukemia = tested on: SR leukemia
MDA-MB-468 breast = tested on: MDA-MB-468 breast
TK-10 renal = tested on: TK-10 renal
NCI/ADR-RES ovarian = tested on: NCI/ADR-RES ovarian
A498 renal = tested on: A498 renal
RXF 393 renal = tested on: RXF 393 renal
OVCAR-4 ovarian = tested on: OVCAR-4 ovarian
NCI-H226 lung = tested on: NCI-H226 lung
NCI-H23 lung = tested on: NCI-H23 lung
SK-MEL-5 melanoma = tested on: SK-MEL-5 melanoma
NCI-H522 lung = tested on: NCI-H522 lung
EKVX NSCLC = tested on: EKVX NSCLC
786-0 renal = tested on: 786-0 renal
SF-295 CNS = tested on: SF-295 CNS
RPMI-8226 leukemia = tested on: RPMI-8226 leukemia
ACHN renal = tested on: ACHN renal
HS 578T breast = tested on: HS 578T breast

O=C1NC(=O)[C@@H](c2cn3c4c(cccc24)CCC3)[C@@H]1c1c[nH]c2ccccc12
GI50 (HCT-15 colon): 40.6 nM
TGI (HCT-15 colon): 4940 nM
GI50 (SN12C renal): 401 nM
TGI (SN12C renal): 12700 nM
GI50 (SF-539 CNS): 244 nM
TGI (SF-539 CNS): 1070 nM
GI50 (CAKI-1 renal): 71.2 nM
TGI (CAKI-1 renal): 12000 nM
GI50 (NCI-H460 NSCLC): 155 nM
TGI (NCI-H460 NSCLC): 630 nM
TGI (HCC-2998 colon): 1260 nM
GI50 (NCI-H322M lung): 558 nM
TGI (NCI-H322M lung): 13800 nM
GI50 (KM12 colon): 28 nM
TGI (KM12 colon): 1990 nM
GI50 (CCRF-CEM leukemia): 119 nM
TGI (CCRF-CEM leukemia): 246 nM
GI50 (BT-549 breast): 154 nM
TGI (BT-549 breast): 718 nM
GI50 (MDA-MB-435 melanoma): 24.9 nM
TGI (MDA-MB-435 melanoma): 141 nM
TGI (SR leukemia): 14.9 nM
GI50 (MDA-MB-468 breast): 53.3 nM
TGI (MDA-MB-468 breast): 204 nM
GI50 (TK-10 renal): 420 nM
TGI (TK-10 renal): 15700 nM
GI50 (NCI/ADR-RES ovarian): 203 nM
TGI (NCI/ADR-RES ovarian): 787 nM
GI50 (A498 renal): 307 nM
TGI (A498 renal): 8830 nM
GI50 (RXF 393 renal): 26.8 nM
TGI (RXF 393 renal): 380 nM
GI50 (OVCAR-4 ovarian): 2160 nM
TGI (OVCAR-4 ovarian): 20700 nM
GI50 (NCI-H226 lung): 400 nM
TGI (NCI-H226 lung): 7390 nM
GI50 (NCI-H23 lung): 269 nM
TGI (NCI-H23 lung): 6960 nM
GI50 (SK-MEL-5 melanoma): 115 nM
TGI (SK-MEL-5 melanoma): 595 nM
GI50 (NCI-H522 lung): 13.2 nM
TGI (NCI-H522 lung): 93.7 nM
GI50 (EKVX NSCLC): 340 nM
TGI (EKVX NSCLC): 13900 nM
GI50 (786-0 renal): 332 nM
TGI (786-0 renal): 12400 nM
GI50 (SF-295 CNS): 246 nM
TGI (SF-295 CNS): 1230 nM
GI50 (RPMI-8226 leukemia): 154 nM
TGI (RPMI-8226 leukemia): 308 nM
GI50 (ACHN renal): 409 nM
TGI (ACHN renal): 14500 nM
GI50 (HS 578T breast): 123 nM
TGI (HS 578T breast): 295 nM
